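Five concentrations, 48 hours, 96-well plates. GI50 is the concentration that inhibits growth by half.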 The source made the active and inactive calls. No stated cut-off is given here; in the data, active = GI50 up to about 1.1 µM and inactive = higher.
Key:
Assay in all cases: inhibition of tumour cell growth, NCI panel, 48 h
786-0 = system: 786-0
A498 = system: A498
A549 = system: A549
ACHN = system: ACHN
BT-549 = system: BT-549
CAKI-1 = system: CAKI-1
CCRF-CEM = system: CCRF-CEM
COLO 205 = system: COLO 205
DU-145 = system: DU-145
EKVX = system: EKVX
HCT-116 = system: HCT-116
HCT-15 = system: HCT-15
HL-60 = system: HL-60
HOP-62 = system: HOP-62
HOP-92 = system: HOP-92
HT-29 = system: HT-29
Hs-578T = system: Hs-578T
IGROV-1 = system: IGROV-1
K562 = system: K562
KM12 = system: KM12
LOX IMVI = system: LOX IMVI
M14 = system: M14
MCF7 = system: MCF7
MDA-MB-231 = system: MDA-MB-231
MDA-MB-435 = system: MDA-MB-435
MDA-N = system: MDA-N
MOLT-4 = system: MOLT-4
Malme-3M = system: Malme-3M
NCI-H226 = system: NCI-H226
NCI-H23 = system: NCI-H23
NCI-H522 = system: NCI-H522
NCI/ADR-RES = system: NCI/ADR-RES
OVCAR-3 = system: OVCAR-3
OVCAR-5 = system: OVCAR-5
OVCAR-8 = system: OVCAR-8
RPMI-8226 = system: RPMI-8226
RXF 393 = system: RXF 393
SF-268 = system: SF-268
SF-295 = system: SF-295
SF-539 = system: SF-539
SK-MEL-28 = system: SK-MEL-28
SK-MEL-2 = system: SK-MEL-2
SK-MEL-5 = system: SK-MEL-5
SK-OV-3 = system: SK-OV-3
SN12C = system: SN12C
SNB-19 = system: SNB-19
SNB-75 = system: SNB-75
SR = system: SR
SW-620 = system: SW-620
T47D = system: T47D
TK-10 = system: TK-10
UACC-257 = system: UACC-257
UACC-62 = system: UACC-62
UO-31 = system: UO-31

In the case of `Cn1c(N)c(Cc2ccc(Cl)cc2)c(=O)[nH]c1=O`, the GI50 (786-0) is reported as > 100 µM (inactive), the GI50 (A498) is reported as > 100 µM (inactive) and the GI50 (A549) is reported as > 100 µM (inactive). The GI50 (ACHN) was > 100 µM (inactive), the GI50 (BT-549) was > 100 µM (inactive) and the GI50 (CAKI-1) was > 100 µM (inactive). The GI50 (CCRF-CEM) was > 100 µM (inactive), the GI50 (COLO 205) was > 100 µM (inactive) and the GI50 (DU-145) was > 100 µM (inactive). For the same compound, the GI50 (EKVX) was > 100 µM (inactive), the GI50 (HCT-116) was > 100 µM (inactive) and the GI50 (HCT-15) was > 100 µM. For the same compound, the GI50 (HL-60) was > 100 µM (inactive), the GI50 (HOP-62) was > 100 µM (inactive) and the GI50 (HOP-92) was 89.7 µM (inactive). The GI50 (HT-29) was > 100 µM (inactive), the GI50 (Hs-578T) was > 100 µM (inactive) and the GI50 (IGROV-1) was > 100 µM (inactive). The GI50 (K562) was > 100 µM (inactive), the GI50 (KM12) was > 100 µM (inactive) and the GI50 (LOX IMVI) was > 100 µM (inactive). For the same compound, the GI50 (M14) was > 100 µM (inactive), the GI50 (MCF7) was > 100 µM (inactive) and the GI50 (MDA-MB-231) was > 100 µM (inactive). The GI50 (MDA-MB-435) was > 100 µM (inactive), the GI50 (MDA-N) was > 100 µM (inactive) and the GI50 (MOLT-4) was > 100 µM (inactive). For the same compound, the GI50 (Malme-3M) was > 100 µM (inactive), the GI50 (NCI-H226) was > 100 µM (inactive) and the GI50 (NCI-H23) was > 100 µM (inactive). For the same compound, the GI50 (NCI-H522) was > 100 µM (inactive), the GI50 (NCI/ADR-RES) was > 100 µM (inactive) and the GI50 (OVCAR-3) was > 100 µM (inactive). For the same compound, the GI50 (OVCAR-5) was > 100 µM (inactive), the GI50 (OVCAR-8) was > 100 µM (inactive) and the GI50 (RPMI-8226) was > 100 µM (inactive). For the same compound, the GI50 (RXF 393) was > 100 µM (inactive), the GI50 (SF-268) was > 100 µM (inactive) and the GI50 (SF-295) was > 100 µM (inactive). The GI50 (SF-539) was > 100 µM (inactive), the GI50 (SK-MEL-28) was > 100 µM (inactive) and the GI50 (SK-MEL-2) was > 100 µM (inactive). The GI50 (SK-MEL-5) was > 100 µM (inactive), the GI50 (SK-OV-3) was > 100 µM (inactive) and the GI50 (SN12C) was > 100 µM (inactive). For the same compound, the GI50 (SNB-19) was > 100 µM (inactive), the GI50 (SNB-75) was 62.8 µM (inactive) and the GI50 (SR) was > 100 µM (inactive). The GI50 (SW-620) was > 100 µM (inactive), the GI50 (T47D) was > 100 µM (inactive) and the GI50 (TK-10) was > 100 µM (inactive). For the same compound, the GI50 (UACC-257) was > 100 µM (inactive), the GI50 (UACC-62) was > 100 µM (inactive) and the GI50 (UO-31) was > 100 µM (inactive).

Reference: ChEMBL document CHEMBL1201862, “PubChem BioAssay data set” (2004)
